Measurements from PubChem BioAssay (NCI).
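Interpolation was linear, between the two tested concentrations surrounding the appropriate level; five concentrations were tested over 48 hours in 96-well plates. TGI is the concentration that stops growth completely.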

How the values were obtained:
Test in all cases: NCI anticancer screen, dose series, 48 h
[1] = tested on: SK-OV-3 ovarian
[2] = tested on: HCT-116 colon
[3] = tested on: MALME-3M melanoma
[4] = tested on: MDA-MB-231 breast
[5] = tested on: NCI-H460 lung
[6] = tested on: RPMI-8226 leukemia
[7] = tested on: 786-0 renal
[8] = tested on: MOLT-4 leukemia
[9] = tested on: UACC-62 melanoma
[10] = tested on: EKVX NSCLC
[11] = tested on: OVCAR-3 ovarian
[12] = tested on: SF-295 CNS
[13] = tested on: UO-31 renal
[14] = tested on: NCI-H23 lung
[15] = tested on: CCRF-CEM leukemia

SMILES | TGI [1] | TGI [2] | TGI [3] | TGI [4] | TGI [5] | TGI [6] | TGI [7] | TGI [8] | TGI [9] | TGI [10] | TGI [11] | TGI [12] | TGI [13] | TGI [14] | TGI [15]
CCOC(=O)Cc1nc2nn(Cc3ccccc3)cc2c(=O)[nH]1 | > 100 µM | > 100 µM | > 100 µM | > 100 µM | > 100 µM | > 100 µM | > 100 µM | > 100 µM | > 100 µM | > 100 µM | > 100 µM | > 100 µM | > 100 µM | > 100 µM | > 100 µM
CCCOc1ccc(/C=C/C2=[N+](CCO)CCO2)cc1 | > 100 µM | > 100 µM | > 100 µM | > 100 µM | > 100 µM | > 100 µM | > 100 µM | > 100 µM | > 100 µM | > 100 µM | > 100 µM | > 100 µM | > 100 µM | > 100 µM | > 100 µM
O=C(O)c1ccccc1C(=O)OCC1CCCN2CCCCC12 (stereo not given) | > 100 µM | > 100 µM | > 100 µM | > 100 µM | > 100 µM | > 100 µM | > 100 µM | > 100 µM | > 100 µM | > 100 µM | > 100 µM | > 100 µM | > 100 µM | > 100 µM | > 100 µM
CC(=O)NNc1nc(C)c(C(/C=C/c2ccccc2O)=N/NC(=O)c2ccncc2)s1 | > 100 µM | > 100 µM | > 100 µM | > 100 µM | > 100 µM | > 100 µM | > 100 µM | > 100 µM | > 100 µM | > 100 µM | > 100 µM | > 100 µM | > 100 µM | > 100 µM | > 100 µM
CC1=C(C#N)C(=O)N(/N=C/c2ccc(Cl)cc2)C(=O)/C1=c1\o/c(=C2/C(=O)N(/N=C/c3ccc(Cl)cc3)C(=O)C(C#N)=C2C)c2nccnc12 | > 100 µM | > 100 µM | > 100 µM | > 100 µM | > 100 µM | > 100 µM | > 100 µM | > 100 µM | > 100 µM | > 100 µM | > 100 µM | > 100 µM | > 100 µM | > 100 µM | > 100 µM
Cc1ccc(S(=O)(=O)Oc2coc(CO)cc2=O)cc1 | 37.7 µM | 15 µM | 44.5 µM | 41.7 µM | 31.1 µM | 36.5 µM | 23.4 µM | > 88.5 µM | 25.3 µM | 30.1 µM | 31.9 µM | 31.3 µM | 27.3 µM | 35.3 µM | 10.7 µM
Clc1cccc(Cl)c1C1SCc2nc3cc4ccccc4cc3n21 (stereo not given) | > 100 µM | > 100 µM | > 100 µM | > 100 µM | > 100 µM | > 100 µM | > 100 µM | > 100 µM | > 100 µM | > 100 µM | > 100 µM | > 100 µM | > 100 µM | > 100 µM | > 100 µM
NC(=O)CC1(O)C=CC(=O)C=C1 | > 100 µM | > 100 µM | > 100 µM | > 100 µM | > 100 µM | > 100 µM | > 100 µM | > 100 µM | > 100 µM | > 100 µM | > 100 µM | > 100 µM | > 100 µM | > 100 µM | > 100 µM
COC(=O)CC1CN(C(=O)OCc2ccccc2)C(C)(C)O1 (stereo not given) | > 100 µM | > 100 µM | > 100 µM | > 100 µM | > 100 µM | > 100 µM | > 100 µM | > 100 µM | > 100 µM | > 100 µM | > 100 µM | > 100 µM | > 100 µM | > 100 µM | > 100 µM
O=S(=O)([N-]c1nc2ccccc2nc1-[n+]1ccccc1)c1ccccc1 | > 100 µM | > 100 µM | > 100 µM | 84.8 µM | > 100 µM | > 100 µM | > 100 µM | 95.4 µM | > 100 µM | > 100 µM | > 100 µM | > 100 µM | > 100 µM | > 100 µM | 30.7 µM
O=c1c2cc([N+](=O)[O-])cnc2sn1-c1ccc(Oc2ccccc2)cc1 | 87.5 µM | > 100 µM | 74.9 µM | 90.7 µM | > 100 µM | > 100 µM | > 100 µM | > 100 µM | > 100 µM | > 100 µM | > 100 µM | > 100 µM | > 100 µM | > 100 µM | > 100 µM
CC1(C)C[C@H]2C3=CC[C@@H]4[C@@]5(C)CC[C@H](O)C(C)(C)[C@@H]5CC[C@@]4(C)[C@]3(C)C[C@@H](O)[C@@]23C[C@@H]1OC3=O | > 100 µM | > 100 µM | > 100 µM | > 100 µM | > 100 µM | > 100 µM | > 100 µM | > 100 µM | > 100 µM | > 100 µM | > 100 µM | > 100 µM | > 100 µM | > 100 µM | > 100 µM
COc1c(C(=O)O)cccc1-c1cccc(C(=O)NCCN(CCNC(=O)c2cccc(-c3cccc(C(=O)O)c3OC)c2OC)CCNC(=O)c2cccc(-c3cccc(C(=O)O)c3OC)c2OC)c1OC | > 100 µM | > 100 µM | 88.1 µM | > 100 µM | > 100 µM | 65.2 µM | > 100 µM | > 100 µM | 89.7 µM | > 100 µM | 64.6 µM | > 100 µM | > 100 µM | > 100 µM | > 100 µM
COC(=O)C1=C(C(=O)OC)C(C(=O)c2ccccc2)N2N=C(c3ccc(Cl)cc3)C=CC12 (stereo not given) | > 100 µM | > 100 µM | 83.7 µM | > 100 µM | > 100 µM | 80.1 µM | > 100 µM | > 100 µM | > 100 µM | > 100 µM | > 100 µM | > 100 µM | > 100 µM | > 100 µM | > 100 µM
COc1ccc(OC)c2c(=O)cc(-c3ccccc3)[nH]c12 | > 100 µM | > 100 µM | > 100 µM | > 100 µM | > 100 µM | > 100 µM | > 100 µM | > 100 µM | > 100 µM | > 100 µM | > 100 µM | > 100 µM | > 100 µM | > 100 µM | > 100 µM
CCC/C(Cl)=N\OC(=O)Nc1ccc(Br)cc1 | 30.5 µM | 26.2 µM | 10.8 µM | 33.8 µM | 34.6 µM | 12.2 µM | 18.5 µM | 6.07 µM | 44.7 µM | 29 µM | 16.3 µM | 30.2 µM | 25.7 µM | 40.6 µM | 4.3 µM
